IC50 data for 39 compounds are collected here from patent publication US10774092B2 (SALK INSTITUTE FOR BIOLOGICAL STUDIES, priority 2014, dated 2020).

pIC50: −log10 of the molar value. A value given as a limit tells only on which side of the number the result lay.

As a reminder, the pIC50 is −log10 of the IC50, conventionally taken in molar units.

This assay concerns the target ULK1. The experiment in a line: ULK1 inhibition assay (Table 1). Type of assay: biochemical. Conditions: * = tested as a mixture of regioisomers.
With `CC(Cl)CNc1nc(Nc2ccc3c(c2)CCC(=O)N3)ncc1C(F)(F)F` (stereo not drawn) [Example 183b, 6-((4-((2-chloropropyl)amino)-5-(trifluoromethyl)pyrimidin-2-yl)amino)-3,4-dihydroquinolin-2(1H)-one], the pIC50 is greater than 6.70. With `CC(CCl)Nc1nc(Nc2ccc3c(c2)CCC(=O)N3)ncc1C(F)(F)F` (stereo not drawn) [Example 183c, 6-((4-((1-chloropropan-2-yl)amino)-5-(trifluoromethyl)pyrimidin-2-yl)amino)-3,4-dihydroquinolin-2(1H)-one], the negative-log IC50 (pIC50) was less than 5.70. In the case of `CN(c1ccccc1)c1nc(Nc2ccc3c(c2)CCC(=O)N3)ncc1C(F)(F)F` [Example 184a, 6-((4-(methyl(phenyl)amino)-5-(trifluoromethyl)pyrimidin-2-yl)amino)-3,4-dihydroquinolin-2(1H)-one] it was 5.70 to 6.70; in that of `CN(c1ccccc1)c1ncc(C(F)(F)F)c(Nc2ccc3c(c2)CCC(=O)N3)n1` [Example 184b, 6-((2-(methyl(phenyl)amino)-5-(trifluoromethyl)pyrimidin-4-yl)amino)-3,4-dihydroquinolin-2(1H)-one], greater than 6.70; in that of `Oc1ncc(C(F)(F)F)c(NC2CC2)n1` [Example 189, 4-(cyclopropylamino)-5-(trifluoromethyl)pyrimidin-2-ol], less than 5.70. In the case of `FC(F)(F)c1cnc(Nc2cccnc2)nc1NC1CC1` [Example 196, N4-cyclopropyl-N2-(pyridin-3-yl)-5-(trifluoromethyl) pyrimidine-2,4-diamine], the pIC50 was less than 5.70. As to `O=C1CCc2cc(Nc3ncc(C(F)(F)F)c(NC4CNC4)n3)ccc2N1` [Example 198a, 6-((4-(azetidin-3-ylamino)-5-(trifluoromethyl)pyrimidin-2-yl)amino)-3,4-dihydroquinolin-2(1H)-one], the negative logarithm of the IC50 (pIC50) is 5.70 to 6.70. The value for `O=C1CCc2cc(Nc3ncc(C(F)(F)F)c(NC4CN(c5nc(Nc6ccc7c(c6)CCC(=O)N7)ncc5C(F)(F)F)C4)n3)ccc2N1` [Example 198b, 6-((4-(3-((2-((2-oxo-1,2,3,4-tetrahydroquinolin-6-yl)amino)-5-(trifluoromethyl)pyrimidin-4-yl)amino)azetidin-1-yl)-5-(trifluoromethyl)pyrimidin-2-yl)amino)-3,4-dihydroquinolin-2(1H)-one] was less than 5.70; that for `FC(F)(F)c1cnc(Nc2cncnc2)nc1NC1CC1` [Example 203, N4-cyclopropyl-N2-(pyrimidin-5-yl)-5-(trifluoromethyl) pyrimidine-2,4-diamine] was greater than 6.70. Regarding `c1cc(NC2CC2)nc(Nc2cnc3[nH]ccc3c2)n1` [Example 204, N4-cyclopropyl-N2-(1H-pyrrolo[2,3-b]pyridin-5-yl)pyrimidine-2,4-diamine], the pIC50 was less than 5.70. For the compound `OC1Nc2ccc(Nc3ncc(C(F)(F)F)c(NC4CC4)n3)cc2O1` (stereo not drawn) [Example 208b, 6-((4-(cyclopropylamino)-5-(trifluoromethyl)pyrimidin-2-yl)amino)-2,3-dihydrobenzo[d]oxazol-2-ol], the pIC50 is greater than 6.70. In the case of `O=C1CCc2cc(Nc3ncc(C(F)(F)F)c(OCCNCCO)n3)ccc2N1` [Example 212b, 6-((4-(2-((2-hydroxyethyl)amino)ethoxy)-5-(trifluoromethyl)pyrimidin-2-yl)amino)-3,4-dihydroquinolin-2(1H)-one], the pIC50 was 5.70 to 6.70. On to `FC(F)(F)c1cnc(Nc2ccon2)nc1NC1CC1` [Example 214a, N4-cyclopropyl-N2-(isoxazol-3-yl)-5-(trifluoromethyl)pyrimidine-2,4-diamine], for which the pIC50 was 5.70 to 6.70. With `N=c1ccon1-c1ncc(C(F)(F)F)c(NC2CC2)n1` [Example 214b, N-cyclopropyl-2-(3-iminoisoxazol-2(3H)-yl)-5-(trifluoromethyl)pyrimidin-4-amine], the negative-log IC50 (pIC50) is less than 5.70.

On to `CN(C)c1nc(Nc2ccc3c(c2)CCC(=O)N3)ncc1C(F)(F)F` [Example 220b, 6-((4-(dimethylamino)-5-(trifluoromethyl)pyrimidin-2-yl)amino)-3,4-dihydroquinolin-2(1H)-one], for which the pIC50 is greater than 6.70. With `c1cc(NC2CC2)nc(Nc2ccc3c(c2)OCCO3)n1` [Example 224, N4-cyclopropyl-N2-(2,3-dihydrobenzo[b][1,4]dioxin-6-yl)pyrimidine-2,4-diamine], the negative logarithm of the IC50 (pIC50) is less than 5.70. Regarding `O=C1CCc2cc(Nc3ncc(C(F)(F)F)c(OC4COC4)n3)ccc2N1` [Example 231a, 6-((4-(oxetan-3-yloxy)-5-(trifluoromethyl)pyrimidin-2-yl)amino)-3,4-dihydroquinolin-2(1H)-one], the pIC50 is greater than 6.70. For the compound `O=C1CCc2cc(Nc3ncc(C(F)(F)F)c(O)n3)ccc2N1` [Example 231b, 6-((4-hydroxy-5-(trifluoromethyl)pyrimidin-2-yl)amino)-3,4-dihydroquinolin-2(1H)-one], the negative logarithm of the IC50 (pIC50) was less than 5.70. The value for `O=c1[nH]c2ccc(Nc3nccc(NC4CC4)n3)cc2[nH]1` [Example 232, 5-((4-(cyclopropylamino)pyrimidin-2-yl)amino)-1,3-dihydro-2H-benzo[d]imidazol-2-one] was less than 5.70; that for `O=c1[nH]c2ccc(Nc3ncc(Br)c(Nc4ccc5[nH]c(=O)[nH]c5c4)n3)cc2[nH]1` [Example 233, 5,5′-((5-bromopyrimidine-2,4-diyl)bis(azanediyl))bis(1,3-dihydro-2H-benzoimidazol-2-one)] was greater than 6.70. Take `COc1cc(Nc2ncc(Cl)c(N(C)C(=O)c3ccccc3O)n2)cc(OC)c1OC` [Example 234b, N-(5-chloro-2-((3,4,5-trimethoxyphenyl)amino)pyrimidin-4-yl)-2-hydroxy-N-methylbenzamide]: the pIC50 was 5.70 to 6.70.

Regarding `O=C1Cc2cc(Nc3ncc(C(F)(F)F)c(NC4CC4)n3)ccc2N1` [Example 240, 5-((4-(cyclopropylamino)-5-(trifluoromethyl)pyrimidin-2-yl)amino)indolin-2-one], the pIC50 is greater than 6.70. In the case of `CNC(=O)c1cccc(Oc2nc(Nc3cc(OC)c(OC)c(OC)c3)ncc2Br)c1` [Example 242, 3-((5-bromo-2-((3,4,5-trimethoxyphenyl)amino)pyrimidin-4-yl)oxy)-N-methylbenzamide], the pIC50 was 5.70 to 6.70. On to `COc1cc(Nc2ncc(Br)c(Oc3ccccc3C(=O)N(C)C)n2)cc(OC)c1OC` [Example 245, 2-((5-bromo-2-((3,4,5-trimethoxyphenyl)amino)pyrimidin-4-yl)oxy)-N,N-dimethylbenzamide], for which the pIC50 was greater than 6.70. `COc1cc(Nc2ncc(Br)c(Oc3ccccc3C(N)=O)n2)cc(OC)c1OC` [Example 249, 2-((5-bromo-2-((3,4,5-trimethoxyphenyl)amino)pyrimidin-4-yl)oxy)benzamide]: the pIC50 was greater than 6.70. In the case of `CNC(=O)c1cccc(OC)c1Oc1nc(Nc2cc(OC)c(OC)c(OC)c2)ncc1Br` [Example 252, 2-((5-bromo-2-((3,4,5-trimethoxyphenyl)amino)pyrimidin-4-yl)oxy)-3-methoxy-N-methylbenzamide], the pIC50 is greater than 6.70. On to `COc1cc(Nc2ncc(Br)c(Oc3ccccc3NC(C)=O)n2)cc(OC)c1OC` [Example 254a, N-(2-((5-bromo-2-((3,4,5-trimethoxyphenyl)amino)pyrimidin-4-yl)oxy)phenyl)acetamide], for which the pIC50 was greater than 6.70. On to `COc1cc(Nc2ncc(Br)c(Oc3ccccc3N)n2)cc(OC)c1OC` [Example 254b, 4-(2-aminophenoxy)-5-bromo-N-(3,4,5-trimethoxyphenyl)pyrimidin-2-amine], for which the pIC50 is greater than 6.70.

As to `CNC(=O)c1c(O)cccc1Oc1nc(Nc2cc(OC)c(OC)c(OC)c2)ncc1Br` [Example 257, 2-((5-bromo-2-((3,4,5-trimethoxyphenyl)amino)pyrimidin-4-yl)oxy)-6-hydroxy-N-methylbenzamide], the pIC50 was greater than 6.70. In the case of `O=C1CCc2cc(Nc3ncc(C(F)(F)F)c(OCCNC(=O)OCc4ccccc4)n3)ccc2N1` [Example 261, Benzyl (2-((2-((2-oxo-1,2,3,4-tetrahydroquinolin-6-yl)amino)-5-(trifluoromethyl)pyrimidin-4-yl)oxy)ethyl)carbamate], the pIC50 was less than 5.70. Turning to `O=C1CCc2cc(Nc3nc(NC4CC4)c4ccccc4n3)ccc2N1` [Example 263, 6-((4-(cyclopropylamino)quinazolin-2-yl)amino)-3,4-dihydroquinolin-2(1H)-one], the pIC50 was less than 5.70. Consider `COc1cc(Nc2ncc(Br)c(Oc3ccccc3)n2)cc(OC)c1OC` [Example 266, 5-bromo-4-phenoxy-N-(3,4,5-trimethoxyphenyl)pyrimidin-2-amine], for which the negative-log IC50 (pIC50) was greater than 6.70. As to `CNC(=O)c1cccc(Oc2nc(Nc3ccc4c(c3)CCC(=O)N4)ncc2Br)c1` [Example 268, 3-((5-bromo-2-((2-oxo-1,2,3,4-tetrahydroquinolin-6-yl)amino)pyrimidin-4-yl)oxy)-N-methylbenzamide], the pIC50 was 5.70 to 6.70. The value for `COc1cc(Nc2ncc(Br)c(Oc3ccccc3C(=O)NC3CC3)n2)cc(OC)c1OC` [Example 270, 2-((5-bromo-2-((3,4,5-trimethoxyphenyl)amino)pyrimidin-4-yl)oxy)-N-cyclopropylbenzamide] was 5.70 to 6.70; that for `COCc1ccccc1Oc1nc(Nc2cc(OC)c(OC)c(OC)c2)ncc1Br` [Example 274, 5-bromo-4-(2-(methoxymethyl)phenoxy)-N-(3,4,5-trimethoxyphenyl)pyrimidin-2-amine] was greater than 6.70; that for `COc1cc(Nc2ncc(Br)c(Oc3ccccc3C(=O)N3CCCC3)n2)cc(OC)c1OC` [Example 277, (2-((5-bromo-2-((3,4,5-trimethoxyphenyl)amino)pyrimidin-4-yl)oxy)phenyl)(pyrrolidin-1-yl)methanone] was greater than 6.70. Turning to `FC(F)(F)c1cnc(Nc2cccc3ncccc23)nc1NC1CC1` [Example 278, N4-cyclopropyl-N2-(quinolin-5-yl)-5-(trifluoromethyl) pyrimidine-2,4-diamine], the pIC50 is less than 5.70. As to `COc1cc(Nc2ncc(Br)c(Oc3ccccc3NC(=O)C3CC3)n2)cc(OC)c1OC` [Example 281, N-(2-((5-bromo-2-((3,4,5-trimethoxyphenyl)amino)pyrimidin-4-yl)oxy)phenyl)cyclopropanecarboxamide], the pIC50 is greater than 6.70. On to `N#Cc1cnc(NC2CC2)nc1Nc1ccc2c(c1)CCC(=O)N2` [Example 287], for which the pIC50 is less than 5.70.
